Here are results for two molecules from patent publication US20020076402A1, “Enzyme-based fungicidal composition” (Universite Pierre et Marie Curie, priority 1998, published 2002).

Experiment [1] deals with Fusarium nivale and Fusarium roseum. The experiment in a line: Pelliculisation of corn: degree of contamination by Fusarium sp. In kind it is in vivo. The method, then: (§1) Germination inhibition test: The pelliculised grains were placed in Petri dishes containing the growth medium. On the fifth day, the degree of contamination (number of contaminated grains/total number of grains) and degree of germination (number of germinated grains/total number of grains) were determined and compared with those of batches pelliculised with Sepiret 01G alone.
(§2) Formulation: An aqueous suspension of Sepiret 7017 Argent composed of 7 g of commercial slip and 10 ml of water was used. 100 mg of the substances shown below was mixed with 2 ml of the above suspension and this mixture was used to pelliculise batches of 2 g of corn. This latter originated from a culture naturally contaminated with Fusarium nivale and Fusarium roseum: […]
(§3) Mixtures tested: (quantities used to pelliculise 2 g of corn: […]

Another experiment has as its system corn. As to the kind of experiment: Pelliculisation of corn: degree of germination. It counts as in vivo. How it is done: When the test is applied to pelliculised grains or seeds, the degree of germination is determined by the number of grains germinated over the total number of grains, and compared with those of non pelliculised batches, or grains that are pelliculised grains in the absence of enzymes and/or their substrate.
Chitinases alone: quantity used to pelliculise 3 to 4 g of corn naturally contaminated with the phytopathogenic fungi Fusarium nivale and Fusarium roseum: 100 mg of CNase was mixed with 3.4 ml of a suspension of Sepiret 7017 Argent composed of 3.6 g of the commercial suspension and 10 ml of water.
Laminarinases alone: quantity used to pelliculise 2 g of contaminated corn: 40 mg of freeze-dried LMase with a filter of 17 units/mg were mixed with 2 ml of a suspension of Sepiret 7017 Argent composed of 3 g of the commercial suspension and 5 ml of water.
Lysozyme alone: quantity used to pelliculise 2 g of contaminated corn: 100 mg of LZ was mixed with 2 ml of a suspension of Sepiret 7017 Argent composed of 5 g of the commercial suspension and 7.1 ml of water.
as §1, §2, §3

[2] abbreviates: Example 4, 100 mg substance in 2 ml Sepiret 7017 Argent suspension per 2 g corn, day five.
Where [3] appears, read: Example 3 mono-enzymatic mixtures in Sepiret 7017 Argent, fifth day.

As for `CC(=O)N[C@H]1C(O)O[C@H](CO)[C@@H](O)[C@@H]1O` (stereo partly shown) [NAG, N-acetylglucosamine, reference compound], the Contamination in experiment [1] (setting [2]) amounted to 70%. Moreover, in experiment [1] (Example 4, vs reference), the “effect on degree of contamination (in words)” value was “no effect”. Besides, in the experiment on corn (setting [2]), the Germination came out at 65%.
Take lysozyme hydrochloride [LZ]: the “inhibition of Fusarium sp. fungi (in words)” value in experiment [1] (Example 3, enzyme alone) was “no effect”. Moreover, in experiment [1] (setting [3]), the Degree of contamination worked out at 65%. The “relative variation of degree of germination” value in the experiment on corn (Example 3, vs own control) was “+20%”. For the same molecule, in the experiment with corn (setting [3]), the Degree of germination was found to be 85%.
